Data published in ChEMBL document CHEMBL3885861, “Open TG-GATES”.

Species: Rattus norvegicus
Assay: Open TG-GATES - Regimen: Single
Type: toxicity, organism-based, Sprague-Dawley
Design: regimen Single, gender Male, age 6 weeks
Details: in vivo, po, 50 mg/kg, route gavage, dose level Low; for APTT / Bas / Eos / Fbg / Hb / Ht / Lym / MCH / MCHC / MCV / Mono / Neu / PT / Plat / RBC / Ret / WBC: tissue Blood; for KIDNEY_L / KIDNEY_R / KIDNEY_TOTAL: tissue Kidney; for LIVER: tissue Liver; for A/G / ALP / ALT / AST / BUN / CRE / Ca / Cl / DBIL / GLC / IP / K / LDH / Na / PL / RALB / TBIL / TC / TG / TP / gamma-GTP: tissue Plasma

SMILES: CN1C(=O)OC(C)(C)C1=O [TRIMETHADIONE]
- TERMINAL_BW (3 h): 208.1 g
- APTT (3 h): 16.8 s
- Bas (3 h): 0%
- Eos (3 h): 0.8%
- Fbg (3 h): 278 mg/dL
- Hb (3 h): 13.4 g/dL
- Ht (3 h): 40.2%
- Lym (3 h): 78.4%
- MCH (3 h): 21.3 pg
- MCHC (3 h): 33.3%
- MCV (3 h): 64 fL
- Mono (3 h): 3%
- Neu (3 h): 17.4%
- PT (3 h): 13.8 s
- Plat (3 h): 129 x10_4/uL
- RBC (3 h): 628.4 x10_4/ul
- Ret (3 h): 8.1%
- WBC (3 h): 86.2 x10_2/uL
- KIDNEY_L (3 h): 0.9 g
- KIDNEY_R (3 h): 0.9 g
- KIDNEY_TOTAL (3 h): 1.8 g
- LIVER (3 h): 9.6 g
- A/G (3 h): 0.9
- ALP (3 h): 1564.2 IU/L
- ALT (3 h): 42.6 IU/L
- AST (3 h): 80.4 IU/L
- BUN (3 h): 10.4 mg/dL
- CRE (3 h): 0.2 mg/dL
- Ca (3 h): 10.6 mg/dL
- Cl (3 h): 108.2 meq/L
- DBIL (3 h): 0.006 mg/dL
- GLC (3 h): 180.8 mg/dL
- IP (3 h): 8.7 mg/dL
- K (3 h): 4.1 meq/L
- LDH (3 h): 133.8 IU/L
- Na (3 h): 141.4 meq/L
- PL (3 h): 146.8 mg/dL
- RALB (3 h): 2.5 g/dL
- TBIL (3 h): 0.064 mg/dL
- TC (3 h): 76.4 mg/dL
- TG (3 h): 77.8 mg/dL
- TP (3 h): 5.4 g/dL
- gamma-GTP (3 h): 1.6 IU/L
- TERMINAL_BW (6 h): 207.4 g
- APTT (6 h): 17 s
- Bas (6 h): 0%
- Eos (6 h): 1%
- Fbg (6 h): 268.2 mg/dL
- Hb (6 h): 13.5 g/dL
- Ht (6 h): 40.5%
- Lym (6 h): 78.6%
- MCH (6 h): 21.6 pg
- MCHC (6 h): 33.2%
- MCV (6 h): 64.9 fL
- Mono (6 h): 2.4%
- Neu (6 h): 17.2%
- PT (6 h): 13.7 s
- Plat (6 h): 120 x10_4/uL
- RBC (6 h): 625.4 x10_4/ul
- Ret (6 h): 8%
- WBC (6 h): 71.3 x10_2/uL
- KIDNEY_L (6 h): 0.9 g
- KIDNEY_R (6 h): 0.9 g
- KIDNEY_TOTAL (6 h): 1.9 g
- LIVER (6 h): 8.6 g
- A/G (6 h): 0.9
- ALP (6 h): 1854.2 IU/L
- ALT (6 h): 39.8 IU/L
- AST (6 h): 79.8 IU/L
- BUN (6 h): 10.8 mg/dL
- CRE (6 h): 0.2 mg/dL
- Ca (6 h): 10.7 mg/dL
- Cl (6 h): 108 meq/L
- DBIL (6 h): 0.004 mg/dL
- GLC (6 h): 185.6 mg/dL
- IP (6 h): 8.9 mg/dL
- K (6 h): 4.2 meq/L
- LDH (6 h): 130.4 IU/L
- Na (6 h): 140.8 meq/L
- PL (6 h): 139.4 mg/dL
- RALB (6 h): 2.5 g/dL
- TBIL (6 h): 0.06 mg/dL
- TC (6 h): 77.2 mg/dL
- TG (6 h): 54.4 mg/dL
- TP (6 h): 5.3 g/dL
- gamma-GTP (6 h): 1.2 IU/L
- TERMINAL_BW (9 h): 201.4 g
- APTT (9 h): 18.8 s
- Bas (9 h): 0%
- Eos (9 h): 1%
- Fbg (9 h): 285.2 mg/dL
- Hb (9 h): 13.2 g/dL
- Ht (9 h): 39.8%
- Lym (9 h): 78.8%
- MCH (9 h): 21.5 pg
- MCHC (9 h): 33.2%
- MCV (9 h): 64.6 fL
- Mono (9 h): 2%
- Neu (9 h): 17.6%
- PT (9 h): 13.6 s
- Plat (9 h): 142.2 x10_4/uL
- RBC (9 h): 615.4 x10_4/ul
- Ret (9 h): 8.1%
- WBC (9 h): 80.8 x10_2/uL
- KIDNEY_L (9 h): 0.9 g
- KIDNEY_R (9 h): 0.9 g
- KIDNEY_TOTAL (9 h): 1.8 g
- LIVER (9 h): 7.5 g
- A/G (9 h): 0.9
- ALP (9 h): 1414 IU/L
- ALT (9 h): 34.8 IU/L
- AST (9 h): 74.6 IU/L
- BUN (9 h): 8.4 mg/dL
- CRE (9 h): 0.2 mg/dL
- Ca (9 h): 10.4 mg/dL
- Cl (9 h): 108.6 meq/L
- DBIL (9 h): 0.002 mg/dL
- GLC (9 h): 158.8 mg/dL
- IP (9 h): 9.7 mg/dL
- K (9 h): 3.9 meq/L
- LDH (9 h): 99.8 IU/L
- Na (9 h): 141.2 meq/L
- PL (9 h): 143.2 mg/dL
- RALB (9 h): 2.5 g/dL
- TBIL (9 h): 0.064 mg/dL
- TC (9 h): 84.6 mg/dL
- TG (9 h): 33.2 mg/dL
- TP (9 h): 5.3 g/dL
- gamma-GTP (9 h): 1.2 IU/L
- TERMINAL_BW (24 h): 222.7 g
- APTT (24 h): 19.1 s
- Bas (24 h): 0%
- Eos (24 h): 1%
- Fbg (24 h): 267 mg/dL
- Hb (24 h): 13.4 g/dL
- Ht (24 h): 40.3%
- Lym (24 h): 76.4%
- MCH (24 h): 21.6 pg
- MCHC (24 h): 33.2%
- MCV (24 h): 64.9 fL
- Mono (24 h): 2.8%
- Neu (24 h): 19.4%
- PT (24 h): 13.4 s
- Plat (24 h): 118.6 x10_4/uL
- RBC (24 h): 620 x10_4/ul
- Ret (24 h): 7.3%
- WBC (24 h): 100.7 x10_2/uL
- KIDNEY_L (24 h): 1 g
- KIDNEY_R (24 h): 1 g
- KIDNEY_TOTAL (24 h): 1.9 g
- LIVER (24 h): 10 g
- A/G (24 h): 0.8
- ALP (24 h): 2138 IU/L
- ALT (24 h): 47.4 IU/L
- AST (24 h): 77.8 IU/L
- BUN (24 h): 14.6 mg/dL
- CRE (24 h): 0.2 mg/dL
- Ca (24 h): 10.8 mg/dL
- Cl (24 h): 105 meq/L
- DBIL (24 h): 0.008 mg/dL
- GLC (24 h): 173.2 mg/dL
- IP (24 h): 7.4 mg/dL
- K (24 h): 4 meq/L
- LDH (24 h): 112.2 IU/L
- Na (24 h): 142.6 meq/L
- PL (24 h): 151.4 mg/dL
- RALB (24 h): 2.6 g/dL
- TBIL (24 h): 0.05 mg/dL
- TC (24 h): 77.6 mg/dL
- TG (24 h): 99.4 mg/dL
- TP (24 h): 5.7 g/dL
- gamma-GTP (24 h): 1.2 IU/L
